The first assay addresses IL-17A(FLAG-Tagged): IL-17RA(His-Tagged) (Homo sapiens, UniProt Q16552, K93Q). The assay can be described thus: IL-17A(FLAG-tagged):IL-17RA(His-tagged) binding disruption Eu-HTRF assay, Protocol 1. Conditions: FLAG tagged IL-17A at 2× final concentration (2.5 nM); simple average if tested more than once. The text has this: IL-17A(FLAG-Tagged): IL-17RA(His-Tagged) Binding Disruption Eu-HTRF Assay
An antibody directed against the FLAG tag of IL-17A (SEQ ID NO:1) is labeled with the HTRF donor chromophore (Europium-cryptate). IL-17A is present as a dimer that is “locked into” this quaternary structure due to the formation of loop-spanning […] disulfide bridges. The construct of IL-17RA used in the assay excludes the outer-membrane portion of the receptor and is fused to a C-terminal 10×His tag (SEQ ID NO:2). An antibody directed against the His tag of the IL-17RA chimera is labeled with the HTRF acceptor chromophore (“D2”). The fluorescence-resonance energy transfer (FRET) depends on the vicinity of the donor chromophore to the acceptor, and interruption of the binding between the IL-17A and IL-17RA causes the reduction/loss of FRET. Therefore, this assay allows to evaluate the compound effect on the binding IL-17A and IL-17RA by monitoring the fluorescence intensity of donor vs acceptor. The assay was run using either Protocol 1 or Protocol 2 described below.
Protocol 1: 40 nL of 2-fold serial diluted compound solution for total 22 dilution points is added into each well of a 1536-well, white, low-volume, non-binding plate (Greiner #782904), then 2 μl of FLAG tagged IL-17A at 2× final concentration (2.5 nM) in solution of PBS+0.01% Triton-X100 is added to each well. The assay plate is briefly centrifuged then incubated for 1 h at rt. A mixed solution is prepared containing 2×5 nM 10HIS×IL-17RA, 2×2.5 nM Eu-anti-FLAG (CISBIO), 2×5 nM D2-anti-HIS (CISBIO) in PBS+0.01% Triton-X100+200 mM Potassium Fluoride (Sigma 60238) and […] of mix is added to each well of the assay plate. The plate is briefly centrifuged then incubated for 2 h at rt. The HTRF intensities at the wavelength of donor (620 nm) and acceptor (665 nm) are measured using BMG Pherastar. The ratio between intensities at two wavelengths is calculated and plotted against the compound concentration and the data is fitted to a one-site competition model to yield IC50 of the compound.
UniProt Q16552, sequence (Q16552 with tags, fused parts or gaps K93Q): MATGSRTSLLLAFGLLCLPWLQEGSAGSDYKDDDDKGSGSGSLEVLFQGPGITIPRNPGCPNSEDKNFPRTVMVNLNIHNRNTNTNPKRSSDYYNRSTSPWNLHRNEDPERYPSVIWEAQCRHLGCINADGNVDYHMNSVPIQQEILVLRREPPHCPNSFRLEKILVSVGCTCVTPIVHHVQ
The compound `COC[C@H](c1cnn2cc([C@H](COC(C)(C)C(F)(F)F)NC(=O)[C@H]3C[C@@H]3C(F)(F)F)nc2c1)N1C[C@@H](C(F)(F)F)NC1=O` (relative stereo) [Example 33, (1S*,2S*)—N—((R)-1-(7-((S)-2-Methoxy-1-((S)-2-oxo-4-(trifluoromethyl)imidazolidin-1-yl)ethyl)imidazo[1,2-b]pyridazin-2-yl)-2-(1,1,1-trifluoro-2-methylpropan-2-yl)oxy)ethyl)-2-(trifluoromethyl)cyclopropane-1-carboxamide] came in with an IC50 of less than 4 µM.
On the same count and under the same terms, with `O=C(N[C@H](c1cn2ncc(CN3C(=O)N[C@H]4CC(F)(F)C[C@H]43)cc2n1)C1CCC(F)(F)CC1)c1nonc1C1CC1` (single isomer, unassigned) [Example 8, 4-Cyclopropyl-N—((S)-(7-(((3aS*,6aR*)-5,5-difluoro-2-oxohexahydrocyclopenta[d]imidazol-1(2H)-yl)methyl)imidazo[1,2-b]pyridazin-2-yl)(4,4-difluorocyclohexyl)methyl)-1,2,5-oxadiazole-3-carboxamide] the figure was less than 4 µM.

For the next assay, the system named is IL-17A-induced G-CSF production in human normal keratinocyte (NHK). The assay can be described thus: NHK assay: IL-17A-induced G-CSF production in normal human keratinocytes. It is filed as cell-based. The note with it: Homo sapiens, Keratinocyte; IL-17A 5 ng/mL, 24 h at 37° C., G-CSF by HTRF; simple average if tested more than once. On the procedure: IL-17A acts directly on keratinocytes through binding to dimeric receptor IL-17RA/RC and drives the production of a number of inflammatory mediators known to be elevated in psoriasis lesional tissue. IL-17A small molecule inhibitors that block the IL-17A to interact with IL-17R would inhibit the IL-17A signaling in its targeted cells such as keratinocytes. The compound functional activity is evaluated for its impact on IL-17A-induced G-CSF production in human normal keratinocyte (NHK).
Adult normal human keratinocytes are cultured in keratinocyte growth medium (Lonza) in a flask till reaching ˜90% confluence, then cells are transferred to a 384-well plate at density of 3000-4000 cell/well. Recombinant human IL-17A (Gibco PHC9174) is pre-incubated with titrated compound or DMSO for 1 h at rt then added to the cell culture plate. The final concentration of IL-17A is 5 ng/mL and DMSO is 0.2%, in the culture containing 5% FBS. Cells are cultured/treated for 24 h at 37° C. Supernatants are collected and G-CSF production is measured through HTRF technology using Human G-CSF Kit (CisBio). G-CSF concentration was extrapolated from the standard curve and IC50 is determined using GraphPad Prism. Cell viability is also evaluated using CellTiter-Glo kit (Promega) and effect of compound on cell viability is compared to DMSO control.
On to `[2H]C1([2H])[C@@H](C(F)(F)F)NC(=O)N1[C@H](COC)c1cnn2cc([C@H](COC(C)(C)C(F)(F)F)NC(=O)c3nonc3C3CC3)nc2c1` (relative stereo) [Example 16, 4-Cyclopropyl-N—((R)-1-(7-((S)-2-methoxy-1-((S*)-2-oxo-4-(trifluoromethyl)imidazolidin-1-yl-5,5-d2)ethyl)imidazo[1,2-b]pyridazin-2-yl)-2-(1,1,1-trifluoro-2-methylpropan-2-yl)oxy)ethyl)-1,2,5-oxadiazole-3-carboxamide], for which the IC50 is less than 4 µM.
The same measure, in the same setting: next, `COC[C@H](c1cnn2cc([C@H](COC(C)(C)C(F)(F)F)NC(=O)[C@@H]3C[C@H]3C(F)(F)F)nc2c1)N1C[C@@H](C(F)(F)F)NC1=O` (relative stereo) [Example 32, (1R*,2R*)—N—((R)-1-(7-((S)-2-Methoxy-((S)-2-oxo-4-(trifluoromethyl)imidazolidin-1-yl)ethyl)imidazo[1,2-b]pyridazin-2-yl)-2-(1,1,1-trifluoro-2-methylpropan-2-yl)oxy)ethyl)-2-(trifluoromethyl)cyclopropane-1-carboxamide]: less than 4 µM; `COC[C@H](c1cnn2cc([C@H](COC(C)(C)C(F)(F)F)NC(=O)[C@H]3C[C@@H]3C(F)(F)F)nc2c1)N1C[C@@H](C(F)(F)F)NC1=O` (relative stereo) [Example 33, (1S*,2S*)—N—((R)-1-(7-((S)-2-Methoxy-1-((S)-2-oxo-4-(trifluoromethyl)imidazolidin-1-yl)ethyl)imidazo[1,2-b]pyridazin-2-yl)-2-(1,1,1-trifluoro-2-methylpropan-2-yl)oxy)ethyl)-2-(trifluoromethyl)cyclopropane-1-carboxamide]: less than 4 µM; `O=C(N[C@H](c1cn2ncc(CN3C(=O)N[C@H]4CC(F)(F)C[C@H]43)cc2n1)C1CCC(F)(F)CC1)c1nonc1C1CC1` (single isomer, unassigned) [Example 8, 4-Cyclopropyl-N—((S)-(7-(((3aS*,6aR*)-5,5-difluoro-2-oxohexahydrocyclopenta[d]imidazol-1(2H)-yl)methyl)imidazo[1,2-b]pyridazin-2-yl)(4,4-difluorocyclohexyl)methyl)-1,2,5-oxadiazole-3-carboxamide]: less than 4 µM.
Turning to `COC[C@H](c1cnn2cc([C@H](COC(C)(C)C(F)(F)F)NC(=O)c3nonc3C)nc2c1)N1C[C@@](C)(C(F)(F)F)NC1=O` (single isomer, unassigned) [Example 30], the IC50 is less than 4 µM.
Still for that read-out and setting: next, `CC(C)n1nccc1C(=O)N[C@H](c1cn2ncc([C@H](COC3CC3)N3C[C@@H](C(F)(F)F)NC3=O)cc2n1)C1CCC(F)(F)CC1` (single isomer, unassigned) [Example 44]: less than 4 µM; `[2H]C1([2H])N([C@H](COC)c2cnn3cc([C@H](COC(C)(C)C(F)(F)F)NC(=O)c4nonc4C4CC4)nc3c2)C(=O)NC1([2H])C(F)(F)F` (stereo in doubt) [Example 34, 4-Cyclopropyl-N—((R)-1-(7-((S)-2-methoxy-1-((R)-2-oxo-4-(trifluoromethyl)imidazolidin-1-yl-4,5,5-d3)ethyl)imidazo[1,2-b]pyridazin-2-yl)-2-((1,1,1-trifluoro-2-methylpropan-2-yl)oxy)ethyl)-1,2,5-oxadiazole-3-carboxamide]: less than 4 µM; `[2H]C1([2H])N([C@H](COC)c2cnn3cc([C@H](COC(C)(C)C(F)(F)F)NC(=O)c4nonc4C)nc3c2)C(=O)NC1([2H])C(F)(F)F` (stereo in doubt) [Example 35, N—((R)-1-(7-((S)-2-Methoxy-1-((R)-2-oxo-4-(trifluoromethyl)imidazolidin-1-yl-4,5,5-d3)ethyl)imidazo[1,2-b]pyridazin-2-yl)-2-((1,1,1-trifluoro-2-methylpropan-2-yl)oxy)ethyl)-4-methyl-1,2,5-oxadiazole-3-carboxamide]: less than 4 µM.
On the same count and under the same terms, next, `COC[C@H](c1cnn2cc([C@H](CC(C)(C)C(F)(F)F)NC(=O)c3nonc3C3CC3)nc2c1)N1C[C@@H](C(F)(F)F)NC1=O` [Example 13, 4-Cyclopropyl-N—((S)-4,4,4-trifluoro-1-(7-((S)-2-methoxy-1-((S)-2-oxo-4-(trifluoromethyl)imidazolidin-1-yl)ethyl)imidazo[1,2-b]pyridazin-2-yl)-3,3-dimethylbutyl)-1,2,5-oxadiazole-3-carboxamide]: less than 4 µM; `COC[C@H](c1cnn2cc([C@H](CC(C)(C)C(F)(F)F)NC(=O)c3nonc3C)nc2c1)N1C[C@@H](C(F)(F)F)NC1=O` [Example 14, 4-Methyl-N—((S)-4,4,4-trifluoro-1-(7-((S)-2-methoxy-1-((S)-2-oxo-4-(trifluoromethyl)imidazolidin-1-yl)ethyl)imidazo[1,2-b]pyridazin-2-yl)-3,3-dimethylbutyl)-1,2,5-oxadiazole-3-carboxamide]: less than 4 µM; `COC[C@H](c1cnn2cc([C@H](CC(C)(C)C(F)(F)F)NC(=O)c3ccnn3C(C)C)nc2c1)N1C[C@@H](C(F)(F)F)NC1=O` [Example 15, 1-Isopropyl-N—((S)-4,4,4-trifluoro-1-(7-((S)-2-methoxy-((S)-2-oxo-4-(trifluoromethyl)imidazolidin-1-yl)ethyl)imidazo[1,2-b]pyridazin-2-yl)-3,3-dimethylbutyl)-1H-pyrazole-5-carboxamide]: less than 4 µM.
In the case of `Cc1nonc1C(=O)N[C@H](c1cn2ncc([C@@H](C3CC3)N3CC4(CC4)NC3=O)cc2n1)C1CCC(F)(F)CC1` [Example 21, N—[(S)—[7-[(R)-Cyclopropyl-(6-oxo-5,7-diazaspiro[2.4]heptan-5-yl)methyl]imidazo[1,2-b]pyridazin-2-yl]-(4,4-difluorocyclohexyl)methyl]-4-methyl-1,2,5-oxadiazole-3-carboxamide], the IC50 is less than 4 µM.
Turning to `CC(C)(OC[C@H](NC(=O)c1nonc1C1CC1)c1cn2ncc(CN3C[C@@H](C(F)(F)F)NC3=O)cc2n1)C(F)(F)F` [Example 24], the half-maximal inhibitory concentration (IC50) was less than 4 µM.
Same read-out and setting: next, `Cc1nonc1C(=O)N[C@H](c1cn2ncc(CN3C[C@@](C)(C(F)(F)F)NC3=O)cc2n1)C1CCC(F)(F)CC1` [Example 28, N—((S)—(4,4-Difluorocyclohexyl)(7-(((S)-4-methyl-2-oxo-4-(trifluoromethyl)imidazolidin-1-yl)methyl)imidazo[1,2-b]pyridazin-2-yl)methyl)-4-methyl-1,2,5-oxadiazole-3-carboxamide]: less than 4 µM.
Same read-out and setting: with `C[C@@]1(C(F)(F)F)CN(Cc2cnn3cc([C@@H](NC(=O)c4nonc4C4CC4)C4CCC(F)(F)CC4)nc3c2)C(=O)N1` [Example 29] the figure was less than 4 µM; with `Cc1nonc1C(=O)N[C@@H](CCC(C)(C)C(F)(F)F)c1cn2ncc([C@@H](COC3CC3)N3C[C@@H](C(F)(F)F)NC3=O)cc2n1` [Example 38, N—((S)-1-(7-((S)-2-Cyclopropoxy-((S)-2-oxo-4-(trifluoromethyl)imidazolidin-1-yl)ethyl)imidazo[1,2-b]pyridazin-2-yl)-5,5,5-trifluoro-4,4-dimethylpentyl)-4-methyl-1,2,5-oxadiazole-3-carboxamide], less than 4 µM; with `CC(C)(CC[C@H](NC(=O)c1nonc1C1CC1)c1cn2ncc([C@@H](COC3CC3)N3C[C@@H](C(F)(F)F)NC3=O)cc2n1)C(F)(F)F` [Example 39, N—((S)-1-(7-((S)-2-Cyclopropoxy-((S)-2-oxo-4-(trifluoromethyl)imidazolidin-1-yl)ethyl)imidazo[1,2-b]pyridazin-2-yl)-5,5,5-trifluoro-4,4-dimethylpentyl)-4-cyclopropyl-1,2,5-oxadiazole-3-carboxamide], less than 4 µM.

The values are drawn from patent publication US12215111B2, “Imidazopyridazine IL-17 inhibitor compounds” (Janssen Pharmaceutica NV, priority 2021, dated 2025).
